Laboratory results reported in patent publication US20240158446A1, “CYCLIC COMPOUND HAVING SELECTIVE INHIBITORY ACTION ON KRAS OVER HRAS AND NRAS” (CHUGAI SEIYAKU KABUSHIKI KAISHA, priority 2021, published 2024).

Key:
[1] = target: GDP-bound HRAS wild-type protein (Homo sapiens, UniProt P01112); assay: Binding to HRAS by surface plasmon resonance (SPR), Single Cycle Kinetics; conditions: SPR, GDP-bound HRAS wild-type protein vs GDP-bound KRAS wild-type protein
[2] = system: human lung cancer strain NCI-H441;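 note: cell proliferation inhibition after four days measured by CellTiter-Glo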
[3] = target: GDP-bound KRAS wild-type protein (Homo sapiens, UniProt P01116); assay: Binding to KRAS by surface plasmon resonance (SPR), Single Cycle Kinetics; conditions: SPR, Single Cycle Kinetics, GDP-bound KRAS wild-type protein; read-out: KRAS KD
Sequence of GDP-bound KRAS wild-type protein (P01116 whole entry): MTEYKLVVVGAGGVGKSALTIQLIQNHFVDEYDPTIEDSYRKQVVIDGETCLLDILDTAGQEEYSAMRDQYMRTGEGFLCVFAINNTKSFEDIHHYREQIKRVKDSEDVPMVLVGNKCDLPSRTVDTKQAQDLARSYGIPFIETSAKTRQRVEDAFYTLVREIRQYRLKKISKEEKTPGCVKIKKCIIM

[4] = target: GDP-bound NRAS wild-type protein (Homo sapiens, UniProt P01111); assay: Binding to NRAS by surface plasmon resonance (SPR), Single Cycle Kinetics; conditions: SPR, GDP-bound NRAS wild-type protein vs GDP-bound KRAS wild-type protein
Sequence of GDP-bound NRAS wild-type protein (P01111 whole entry): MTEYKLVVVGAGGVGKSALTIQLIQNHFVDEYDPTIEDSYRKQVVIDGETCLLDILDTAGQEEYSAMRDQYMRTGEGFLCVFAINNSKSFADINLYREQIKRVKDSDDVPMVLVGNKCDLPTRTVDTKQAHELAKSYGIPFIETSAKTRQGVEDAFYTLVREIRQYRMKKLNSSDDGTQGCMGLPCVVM

Sequence of GDP-bound HRAS wild-type protein (P01112 whole entry): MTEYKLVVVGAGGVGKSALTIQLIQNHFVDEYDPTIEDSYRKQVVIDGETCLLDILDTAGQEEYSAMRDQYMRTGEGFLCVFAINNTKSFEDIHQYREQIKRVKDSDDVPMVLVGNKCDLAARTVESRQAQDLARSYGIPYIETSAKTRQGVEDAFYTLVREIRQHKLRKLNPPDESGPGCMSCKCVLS

SMILES | HRAS/KRAS (ratio of KD value for HRAS to KD value for KRAS) [1] | IC50 [2] [nM] | Kd [3] [nM] | NRAS/KRAS (ratio of KD value for NRAS to KD value for KRAS) [4]
CCC[C@H]1C(=O)N[C@@H]([C@@H](C)CC)C(=O)N(C2CC2)CC(=O)N(C)[C@H]2C/C=C\CCN(C2=O)[C@@H](Cc2ccc(C)cc2)C(=O)N(C)CC(=O)N[C@@H](CCc2ccc(C(F)(F)F)c(OC)c2)C(=O)N2C[C@@H](C)C[C@H]2C(=O)N(C)C2(CCC2)C(=O)N(C)[C@@H](C2CCCC2)C(=O)N(C)[C@H](C(=O)N(C)C)CC(=O)N1C [PP2366] | A (a compound having 10 or more and less than 20 is denoted as A) | 4.5 | 0.048 | A (a compound having 10 or more and less than 20 is denoted as A)
CCCOC[C@H]1C(=O)N[C@@H]([C@@H](C)CC)C(=O)N(C2CC2)CC(=O)N(C)[C@H]2C/C=C\CCN(C2=O)[C@@H](Cc2ccc(C)cc2)C(=O)N(C)CC(=O)N[C@@H](CCc2ccc(C(F)(F)F)c(OC)c2)C(=O)N2C[C@@H](C)C[C@H]2C(=O)N(C)C2(CCC2)C(=O)N(C)[C@@H](C2CCCC2)C(=O)N(C)[C@H](C(=O)N(C)C)CC(=O)N1C [PP2367] | B (a compound having 3 or more and less than 10 is denoted as B) | 2.1 | 0.075 | A (a compound having 10 or more and less than 20 is denoted as A)
CCC[C@H]1C(=O)N[C@@H]([C@@H](C)CC)C(=O)N2CCC[C@H]2C(=O)N(C)[C@H]2C/C=C\CCN(C2=O)[C@@H](Cc2ccc(C)cc2)C(=O)N(C)CC(=O)N[C@@H](CCc2ccc(C(F)(F)F)c(OC)c2)C(=O)N2C[C@@H](C)C[C@H]2C(=O)N(C)C2(CCC2)C(=O)N(C)[C@@H](C2CCCC2)C(=O)N(C)[C@H](C(=O)N(C)C)CC(=O)N1C [PP2368] | A (a compound having 10 or more and less than 20 is denoted as A) | 4.1 | 0.045 | A (a compound having 10 or more and less than 20 is denoted as A)
CCCOC[C@H]1C(=O)N[C@@H]([C@@H](C)CC)C(=O)N2CCC[C@H]2C(=O)N(C)[C@H]2C/C=C\CCN(C2=O)[C@@H](Cc2ccc(C)cc2)C(=O)N(C)CC(=O)N[C@@H](CCc2ccc(C(F)(F)F)c(OC)c2)C(=O)N2C[C@@H](C)C[C@H]2C(=O)N(C)C2(CCC2)C(=O)N(C)[C@@H](C2CCCC2)C(=O)N(C)[C@H](C(=O)N(C)C)CC(=O)N1C [PP2369] | B (a compound having 3 or more and less than 10 is denoted as B) | 4.5 | 0.062 | A (a compound having 10 or more and less than 20 is denoted as A)
CCC[C@H]1C(=O)N[C@@H]([C@@H](C)CC)C(=O)N(C)CC(=O)N(C)[C@H]2C/C=C\CCN(C2=O)[C@@H](CC2CCCCC2)C(=O)N(C)CC(=O)N[C@@H](CCc2ccc(C(F)(F)F)c(OC)c2)C(=O)N2C[C@@H](C)C[C@H]2C(=O)N(C)C2(CCC2)C(=O)N(C)[C@@H](C2CCCC2)C(=O)N(C)[C@H](C(=O)N(C)C)CC(=O)N1C [PP2370] | B (a compound having 3 or more and less than 10 is denoted as B) | 25.7 | 0.54 | B (a compound having 3 or more and less than 10 is denoted as B)
CCOC[C@H]1C(=O)N[C@@H]([C@@H](C)CC)C(=O)N(C)CC(=O)N(C)[C@H]2C/C=C\CCN(C2=O)[C@@H](CC2CCCCC2)C(=O)N(C)CC(=O)N[C@@H](CCc2ccc(C(F)(F)F)c(OC)c2)C(=O)N2C[C@@H](C)C[C@H]2C(=O)N(C)C2(CCC2)C(=O)N(C)[C@@H](C2CCCC2)C(=O)N(C)[C@H](C(=O)N(C)C)CC(=O)N1C [PP2371] | B (a compound having 3 or more and less than 10 is denoted as B) | 41.9 | 0.64 | A (a compound having 10 or more and less than 20 is denoted as A)
CCC[C@H]1C(=O)N[C@@H]([C@@H](C)CC)C(=O)N(C2CC2)CC(=O)N(C)[C@H]2C/C=C\CCN(C2=O)[C@@H](CC2CCCCC2)C(=O)N(C)CC(=O)N[C@@H](CCc2ccc(C(F)(F)F)c(OC)c2)C(=O)N2C[C@@H](C)C[C@H]2C(=O)N(C)C2(CCC2)C(=O)N(C)[C@@H](C2CCCC2)C(=O)N(C)[C@H](C(=O)N(C)C)CC(=O)N1C [PP2372] | B (a compound having 3 or more and less than 10 is denoted as B) | 3.3 | 0.79 | A (a compound having 10 or more and less than 20 is denoted as A)
CCOC[C@H]1C(=O)N[C@@H]([C@@H](C)CC)C(=O)N(C2CC2)CC(=O)N(C)[C@H]2C/C=C\CCN(C2=O)[C@@H](CC2CCCCC2)C(=O)N(C)CC(=O)N[C@@H](CCc2ccc(C(F)(F)F)c(OC)c2)C(=O)N2C[C@@H](C)C[C@H]2C(=O)N(C)C2(CCC2)C(=O)N(C)[C@@H](C2CCCC2)C(=O)N(C)[C@H](C(=O)N(C)C)CC(=O)N1C [PP2373] | A (a compound having 10 or more and less than 20 is denoted as A) | 6.5 | 0.66 | A (a compound having 10 or more and less than 20 is denoted as A)
CCC[C@H]1C(=O)N[C@@H]([C@@H](C)CC)C(=O)N2CCC[C@H]2C(=O)N(C)[C@H]2C/C=C\CCN(C2=O)[C@@H](CC2CCCCC2)C(=O)N(C)CC(=O)N[C@@H](CCc2ccc(C(F)(F)F)c(OC)c2)C(=O)N2C[C@@H](C)C[C@H]2C(=O)N(C)C2(CCC2)C(=O)N(C)[C@@H](C2CCCC2)C(=O)N(C)[C@H](C(=O)N(C)C)CC(=O)N1C [PP2374] | A (a compound having 10 or more and less than 20 is denoted as A) | 67.2 | 0.85 | A (a compound having 10 or more and less than 20 is denoted as A)
CCOC[C@H]1C(=O)N[C@@H]([C@@H](C)CC)C(=O)N2CCC[C@H]2C(=O)N(C)[C@H]2C/C=C\CCN(C2=O)[C@@H](CC2CCCCC2)C(=O)N(C)CC(=O)N[C@@H](CCc2ccc(C(F)(F)F)c(OC)c2)C(=O)N2C[C@@H](C)C[C@H]2C(=O)N(C)C2(CCC2)C(=O)N(C)[C@@H](C2CCCC2)C(=O)N(C)[C@H](C(=O)N(C)C)CC(=O)N1C [PP2375] | B (a compound having 3 or more and less than 10 is denoted as B) | 172 | 1.1 | A (a compound having 10 or more and less than 20 is denoted as A)
CCC[C@H]1C(=O)N[C@@H]([C@@H](C)CC)C(=O)N(C)CC(=O)N(C)[C@H]2C/C=C\CCN(C2=O)[C@@H](CC2CCC(F)(F)CC2)C(=O)N(C)CC(=O)N[C@@H](CCc2ccc(C(F)(F)F)c(OC)c2)C(=O)N2C[C@@H](C)C[C@H]2C(=O)N(C)C2(CCC2)C(=O)N(C)[C@@H](C2CCCC2)C(=O)N(C)[C@H](C(=O)N(C)C)CC(=O)N1C [PP2376] | A (a compound having 10 or more and less than 20 is denoted as A) | 4.8 | 0.28 | A (a compound having 10 or more and less than 20 is denoted as A)
CCCOC[C@H]1C(=O)N[C@@H]([C@@H](C)CC)C(=O)N(C)CC(=O)N(C)[C@H]2C/C=C\CCN(C2=O)[C@@H](CC2CCC(F)(F)CC2)C(=O)N(C)CC(=O)N[C@@H](CCc2ccc(C(F)(F)F)c(OC)c2)C(=O)N2C[C@@H](C)C[C@H]2C(=O)N(C)C2(CCC2)C(=O)N(C)[C@@H](C2CCCC2)C(=O)N(C)[C@H](C(=O)N(C)C)CC(=O)N1C [PP2377] | A (a compound having 10 or more and less than 20 is denoted as A) | 5.7 | 0.32 | A (a compound having 10 or more and less than 20 is denoted as A)
CCC[C@H]1C(=O)N[C@@H]([C@@H](C)CC)C(=O)N(C2CC2)CC(=O)N(C)[C@H]2C/C=C\CCN(C2=O)[C@@H](CC2CCC(F)(F)CC2)C(=O)N(C)CC(=O)N[C@@H](CCc2ccc(C(F)(F)F)c(OC)c2)C(=O)N2C[C@@H](C)C[C@H]2C(=O)N(C)C2(CCC2)C(=O)N(C)[C@@H](C2CCCC2)C(=O)N(C)[C@H](C(=O)N(C)C)CC(=O)N1C [PP2378] | A (a compound having 10 or more and less than 20 is denoted as A) | 48.3 | 0.88 | B (a compound having 3 or more and less than 10 is denoted as B)
CCCOC[C@H]1C(=O)N[C@@H]([C@@H](C)CC)C(=O)N(C2CC2)CC(=O)N(C)[C@H]2C/C=C\CCN(C2=O)[C@@H](CC2CCC(F)(F)CC2)C(=O)N(C)CC(=O)N[C@@H](CCc2ccc(C(F)(F)F)c(OC)c2)C(=O)N2C[C@@H](C)C[C@H]2C(=O)N(C)C2(CCC2)C(=O)N(C)[C@@H](C2CCCC2)C(=O)N(C)[C@H](C(=O)N(C)C)CC(=O)N1C [PP2379] | A (a compound having 10 or more and less than 20 is denoted as A) | 2.2 | 0.76 | A (a compound having 10 or more and less than 20 is denoted as A)
CCC[C@H]1C(=O)N[C@@H]([C@@H](C)CC)C(=O)N2CCC[C@H]2C(=O)N(C)[C@H]2C/C=C\CCN(C2=O)[C@@H](CC2CCC(F)(F)CC2)C(=O)N(C)CC(=O)N[C@@H](CCc2ccc(C(F)(F)F)c(OC)c2)C(=O)N2C[C@@H](C)C[C@H]2C(=O)N(C)C2(CCC2)C(=O)N(C)[C@@H](C2CCCC2)C(=O)N(C)[C@H](C(=O)N(C)C)CC(=O)N1C [PP2380] | A (a compound having 10 or more and less than 20 is denoted as A) | 2.1 | 0.85 | A (a compound having 10 or more and less than 20 is denoted as A)
